{"source": "patent US6914045B2", "about": "“Glycopeptide antibiotics” (Wyeth Holdings Corporation, priority 2001, dated 2005)", "key": {"Enterococcus sp.": {"tested_on": "Enterococcus sp.", "experiment": "in vitro antibacterial evaluation, MIC by broth dilution", "type": "cell-based", "conditions": "broth dilution, 18 hours at 35° C.; for MIC Enterococcus faecalis (ATCC 29212): strain ATCC 29212; for MIC Enterococcus faecalis (GC 2242): strain GC 2242; for MIC Enterococcus faecium (GC 2243): strain GC 2243; for MIC Enterococcus faecalis (GC 2691): strain GC 2691; for MIC Enterococcus faecalis (GC 3059): strain GC 3059; for MIC Enterococcus faecalis (GC 4552): strain GC 4552; for MIC Enterococcus faecalis (GC 4553): strain GC 4553; for MIC Enterococcus faecalis (GC 4554): strain GC 4554; for MIC Enterococcus faecium (GC 4556): strain GC 4556; for MIC Enterococcus faecium (GC 4557): strain GC 4557; for MIC Enterococcus avium (GC 4558): strain GC 4558; for MIC Enterococcus faecalis (GC 6189): strain GC 6189", "method_in_brief": "(§1)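 Broth dilution per NCCLS standard M7-A2 in Muller-Hinton II […], with an inoculum of 5×10^5 CFU/mL and antibiotic spanning 64-0.06 μg/mL. The MIC is the lowest concentration that inhibits growth of the organism.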"}, "Escherichia coli": {"tested_on": "Escherichia coli", "experiment": "in vitro antibacterial evaluation, MIC by broth dilution", "type": "cell-based", "method_in_brief": "as §1"}, "Staphylococcus sp.": {"tested_on": "Staphylococcus sp.", "experiment": "in vitro antibacterial evaluation, MIC by broth dilution", "type": "cell-based", "conditions": "broth dilution, 18 hours at 35° C.; for MIC Staphylococcus aureus (GC 1131): strain GC 1131", "method_in_brief": "as §1"}, "Streptococcus sp.": {"tested_on": "Streptococcus sp.", "experiment": "in vitro antibacterial evaluation, MIC by broth dilution", "type": "cell-based", "conditions": "broth dilution, 18 hours at 35° C.; for MIC Streptococcus pneumoniae (ATCC 6301): strain ATCC 6301; for MIC Streptococcus pneumoniae (GC 1894): strain GC 1894; for MIC Streptococcus pyogenes (GC 4563): strain GC 4563; for MIC Streptococcus agalactiae (GC 4564): strain GC 4564; for MIC Streptococcus pneumoniae (GC 4565): strain GC 4565", "method_in_brief": "as §1"}, "[1]": {"tested_on": "Staphylococcus aureus-SMITH (GC 4543)", "experiment": "acute lethal infection in mice", "type": "in vivo", "conditions": "acute lethal infection, female CD-1 mice, intraperitoneal challenge, intravenous 30 min. after infection, 7 day survival", "method_in_brief": "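Female CD-1 mice (20±2 g) got an intraperitoneal bacterial challenge lethal to untreated controls within 24–48 hr. Compound was dosed intravenously 30 min after infection, five mice per dose. ED50 was calculated from 7-day survival pooled across 3 tests.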"}}, "data": [{"smiles": "Cc1ccc(Oc2ccc(C3OCC4OC(OC5C(CO)OC(Oc6ccc(CC7NC(=O)C(C(C)c8ccccc8)NC(=O)CNC(=O)C(CO)NC(=O)C(C(O)C8CNC(=N)N8C8OC(CO)C(O)C(O)C8O)NC(=O)C(C(O)C8CNC(=N)N8)NC7=O)cc6)C(O)C5O)C(O)C(O)C4O3)cc2)cc1", "note": "(stereo not drawn) [Example 174, Cyclo[glycyl-β-methylphenylalanyl-O-[4-O-[4,6-O-[4-(4-methylphenoxy)benzylidene]hexopyranosyl]hexopyranosyl]tyrosyl-3-(2-iminoimidazolidin-4-yl)seryl-3-(3-hexopyranosyl-2-iminoimidazolidin-4-yl)serylseryl]]", "values": [{"measurement": "MIC Enterococcus faecalis (ATCC 29212)", "setting": "Enterococcus sp.; inoculum 5×10^5 CFU/mL", "result": 2, "unit": "µg/mL"}, {"measurement": "MIC Enterococcus faecalis (GC 2242)", "setting": "Enterococcus sp.; inoculum 5×10^5 CFU/mL", "result": 2, "unit": "µg/mL"}, {"measurement": "MIC Enterococcus faecium (GC 2243)", "setting": "Enterococcus sp.; inoculum 5×10^5 CFU/mL", "result": 1, "unit": "µg/mL"}, {"measurement": "MIC Enterococcus faecalis (GC 2691)", "setting": "Enterococcus sp.; inoculum 5×10^5 CFU/mL", "result": 2, "unit": "µg/mL"}, {"measurement": "MIC Enterococcus faecalis (GC 3059)", "setting": "Enterococcus sp.; inoculum 5×10^5 CFU/mL", "result": 2, "unit": "µg/mL"}, {"measurement": "MIC Enterococcus faecalis (GC 4552)", "setting": "Enterococcus sp.; inoculum 5×10^5 CFU/mL", "result": 1, "unit": "µg/mL"}, {"measurement": "MIC Enterococcus faecalis (GC 4553)", "setting": "Enterococcus sp.; inoculum 5×10^5 CFU/mL", "result": 1, "unit": "µg/mL"}, {"measurement": "MIC Enterococcus faecalis (GC 4554)", "setting": "Enterococcus sp.; inoculum 5×10^5 CFU/mL", "result": 1, "unit": "µg/mL"}, {"measurement": "MIC Enterococcus faecium (GC 4556)", "setting": "Enterococcus sp.; inoculum 5×10^5 CFU/mL", "result": 1, "unit": "µg/mL"}, {"measurement": "MIC Enterococcus faecium (GC 4557)", "setting": "Enterococcus sp.; inoculum 5×10^5 CFU/mL", "result": 2, "unit": "µg/mL"}, {"measurement": "MIC Enterococcus avium (GC 4558)", "setting": "Enterococcus sp.; inoculum 5×10^5 CFU/mL", "result": 2, "unit": "µg/mL"}, {"measurement": "MIC Enterococcus faecalis (GC 6189)", "setting": "Enterococcus sp.; inoculum 5×10^5 CFU/mL", "result": 2, "unit": "µg/mL"}, {"measurement": "MIC Enterococcus faecalis (ATCC 29212)", "setting": "Enterococcus sp.", "result": 2, "unit": "µg/mL"}, {"measurement": "MIC Enterococcus faecalis (GC 2242)", "setting": "Enterococcus sp.", "result": 2, "unit": "µg/mL"}, {"measurement": "MIC Enterococcus faecium (GC 2243)", "setting": "Enterococcus sp.", "result": 1, "unit": "µg/mL"}, {"measurement": "MIC Enterococcus faecalis (GC 2691)", "setting": "Enterococcus sp.", "result": 2, "unit": "µg/mL"}, {"measurement": "MIC Enterococcus faecalis (GC 3059)", "setting": "Enterococcus sp.", "result": 2, "unit": "µg/mL"}, {"measurement": "MIC Enterococcus faecalis (GC 4552)", "setting": "Enterococcus sp.", "result": 1, "unit": "µg/mL"}, {"measurement": "MIC Enterococcus faecalis (GC 4553)", "setting": "Enterococcus sp.", "result": 1, "unit": "µg/mL"}, {"measurement": "MIC Enterococcus faecalis (GC 4554)", "setting": "Enterococcus sp.", "result": 1, "unit": "µg/mL"}, {"measurement": "MIC Enterococcus faecium (GC 4556)", "setting": "Enterococcus sp.", "result": 1, "unit": "µg/mL"}, {"measurement": "MIC Enterococcus faecium (GC 4557)", "setting": "Enterococcus sp.", "result": 2, "unit": "µg/mL"}, {"measurement": "MIC Enterococcus avium (GC 4558)", "setting": "Enterococcus sp.", "result": 2, "unit": "µg/mL"}, {"measurement": "MIC Enterococcus faecalis (GC 6189)", "setting": "Enterococcus sp.", "result": 2, "unit": "µg/mL"}, {"measurement": "MIC Escherichia coli (ATCC 25922)", "setting": "Escherichia coli; strain ATCC 25922, 18 hours at 35° C.", "result": ">64", "unit": "µg/mL"}, {"measurement": "MIC Escherichia coli (GC 4559)", "setting": "Escherichia coli; strain GC 4559, 18 hours at 35° C.", "result": ">64", "unit": "µg/mL"}, {"measurement": "MIC Escherichia coli (GC 4560)", "setting": "Escherichia coli; strain GC 4560, 18 hours at 35° C.", "result": 4, "unit": "µg/mL"}, {"measurement": "MIC Staphylococcus aureus (GC 1131)", "setting": "Staphylococcus sp.; inoculum 5×10^5 CFU/mL", "result": 1, "unit": "µg/mL"}, {"measurement": "MIC Staphylococcus aureus (ATCC 29213)", "setting": "Staphylococcus sp.; strain ATCC 29213", "result": 2, "unit": "µg/mL"}, {"measurement": "MIC Staphylococcus aureus (GC 1131)", "setting": "Staphylococcus sp.", "result": 1, "unit": "µg/mL"}, {"measurement": "MIC Staphylococcus aureus (GC 3051)", "setting": "Staphylococcus sp.; strain GC 3051", "result": 2, "unit": "µg/mL"}, {"measurement": "MIC Staphylococcus aureus (GC 3053)", "setting": "Staphylococcus sp.; strain GC 3053", "result": 2, "unit": "µg/mL"}, {"measurement": "MIC Staphylococcus aureus (GC 4541)", "setting": "Staphylococcus sp.; strain GC 4541", "result": 2, "unit": "µg/mL"}, {"measurement": "MIC Staphylococcus aureus (GC 4542)", "setting": "Staphylococcus sp.; strain GC 4542", "result": 2, "unit": "µg/mL"}, {"measurement": "MIC Staphylococcus aureus (GC 4544)", "setting": "Staphylococcus sp.; strain GC 4544", "result": 1, "unit": "µg/mL"}, {"measurement": "MIC Staphylococcus aureus (GC 4545)", "setting": "Staphylococcus sp.; strain GC 4545", "result": 1, "unit": "µg/mL"}, {"measurement": "MIC Staphylococcus aureus-SMITH (GC 4543)", "setting": "Staphylococcus sp.; strain GC 4543", "result": 1, "unit": "µg/mL"}, {"measurement": "MIC Staphylococcus haemolyticus (GC 4546)", "setting": "Staphylococcus sp.; strain GC 4546", "result": 2, "unit": "µg/mL"}, {"measurement": "MIC Coagulase Negative Staphylococcus (GC 4547)", "setting": "Staphylococcus sp.; strain GC 4547", "result": 2, "unit": "µg/mL"}, {"measurement": "MIC Coagulase Negative Staphylococcus (GC 4548)", "setting": "Staphylococcus sp.; strain GC 4548", "result": 0.5, "unit": "µg/mL"}, {"measurement": "MIC Coagulase Negative Staphylococcus (GC 4549)", "setting": "Staphylococcus sp.; strain GC 4549", "result": 1, "unit": "µg/mL"}, {"measurement": "MIC Coagulase Negative Staphylococcus (GC 4551)", "setting": "Staphylococcus sp.; strain GC 4551", "result": 1, "unit": "µg/mL"}, {"measurement": "MIC Coagulase Negative Staphylococcus (GC 6257)", "setting": "Staphylococcus sp.; strain GC 6257", "result": 0.5, "unit": "µg/mL"}, {"measurement": "MIC Streptococcus pneumoniae (ATCC 6301)", "setting": "Streptococcus sp.; inoculum 5×10^5 CFU/mL", "result": "<0.06", "unit": "µg/mL"}, {"measurement": "MIC Streptococcus pneumoniae (GC 1894)", "setting": "Streptococcus sp.; inoculum 5×10^5 CFU/mL", "result": "<0.06", "unit": "µg/mL"}, {"measurement": "MIC Streptococcus pyogenes (GC 4563)", "setting": "Streptococcus sp.; inoculum 5×10^5 CFU/mL", "result": "<0.06", "unit": "µg/mL"}, {"measurement": "MIC Streptococcus agalactiae (GC 4564)", "setting": "Streptococcus sp.; inoculum 5×10^5 CFU/mL", "result": "<0.06", "unit": "µg/mL"}, {"measurement": "MIC Streptococcus pneumoniae (GC 4565)", "setting": "Streptococcus sp.; inoculum 5×10^5 CFU/mL", "result": "<0.06", "unit": "µg/mL"}, {"measurement": "MIC Streptococcus pneumoniae (ATCC 6301)", "setting": "Streptococcus sp.", "result": "<0.06", "unit": "µg/mL"}, {"measurement": "MIC Streptococcus pneumoniae (GC 1894)", "setting": "Streptococcus sp.", "result": "<0.06", "unit": "µg/mL"}, {"measurement": "MIC Streptococcus pyogenes (GC 4563)", "setting": "Streptococcus sp.", "result": "<0.06", "unit": "µg/mL"}, {"measurement": "MIC Streptococcus agalactiae (GC 4564)", "setting": "Streptococcus sp.", "result": "<0.06", "unit": "µg/mL"}, {"measurement": "MIC Streptococcus pneumoniae (GC 4565)", "setting": "Streptococcus sp.", "result": "<0.06", "unit": "µg/mL"}, {"measurement": "median effective dose (ED50), Staphylococcus aureus-SMITH (GC 4543)", "setting": "[1]", "result": 0.08, "unit": "mg/kg"}]}]}
